In US9040518B2, “Chemical compounds” (GlaxoSmithKline LLC, priority 2010, dated 2015):
Counter-ions that a name gives are not always drawn.

Target: ileal bile acid cotransporter (iBAT) (Homo sapiens (Human), UniProt Q12908)
Assay: Human iBAT inhibition: [3H]-taurocholate uptake into HEK293 cells expressing human iBAT
Format: cell-based
Conditions: HEK293 cells transduced with human iBAT Bacmam virus, 90 minutes at ambient temperature, mean of at least 2 datapoints
Description: Method for Determination of Human iBAT Inhibition:
In preparation for measurement of bile acid uptake into cells expressing the ileal bile acid cotransporter (iBAT), HEK293 cells were cultured in DMEM/F12 supplemented with 10% FBS. Twenty four hours prior to running an experiment, cells were harvested when at a confluence of 80-90%. Cells were seeded in poly-d-lysine coated plates at 50,000 cells per well, and human iBAT Bacmam virus was added such that each well contains 3.67×10e6 pfu (73.4pfu/cell). Each assay plate was covered with Breathe Easy Seal and placed in an incubator for 24 hours to allow expression of the transporter.
On the day of the uptake experiment, 10 mM HEPES was added to Hank's Balanced Salt Solution, and the pH was adjusted to 7.4 with TRIS (HBSSH). The assay buffer was prepared by adding […] [^3H]-taurocholate and 10 μM cold taurocholate to room temperature HBSSH. A separate washing buffer was prepared by adding 10 μM cold taurocholate to HBSSH (˜30 ml per assay plate) and placed on ice. Using 100% DMSO, 8 point, 3-fold dilution curves for each test compound was prepared starting at 200 μM. Similarly, an 8 point dose response curve was prepared of the control compound [(3R,5R)-3-butyl-3-ethyl-7,8-bis(methyloxy)-5-phenyl-2,3,4,5-tetrahydro-1,4-benzothiazepine 1,1-dioxide (Brieaddy, L. E. WO9605188, 1996)] starting at 1.8 mM. Drug plates were created by adding 3 μL of each concentration to a v-bottom 96-well plate then diluted 60-fold with 177 μL of assay buffer. Plates were removed from the incubator and allowed to cool to ambient temperature. Media was aspirated, and wells were washed once with 300 μL HBSSH. 50 μL of each dose response curve concentration was added in triplicate by column to the assay plates, reserving column 10 for control (assay buffer+1.67% DMSO) and columns 11 and 12 for the control compound. Plates were incubated at ambient temperature for 90 minutes then the plates were aspirated then washed 1× with 300 μL of wash buffer. 220 μL of Microscint 20 was added to each well, and the plates were sealed. The amount of [^3H]-taurocholate in cell lysate was quantitated using a microplate scintillation counter on the following day.
IC50's can be generated using the formula, y=(Vmax*x^n)/(K^n+x^n).

ileal bile acid cotransporter (iBAT), sequence (Q12908 whole entry): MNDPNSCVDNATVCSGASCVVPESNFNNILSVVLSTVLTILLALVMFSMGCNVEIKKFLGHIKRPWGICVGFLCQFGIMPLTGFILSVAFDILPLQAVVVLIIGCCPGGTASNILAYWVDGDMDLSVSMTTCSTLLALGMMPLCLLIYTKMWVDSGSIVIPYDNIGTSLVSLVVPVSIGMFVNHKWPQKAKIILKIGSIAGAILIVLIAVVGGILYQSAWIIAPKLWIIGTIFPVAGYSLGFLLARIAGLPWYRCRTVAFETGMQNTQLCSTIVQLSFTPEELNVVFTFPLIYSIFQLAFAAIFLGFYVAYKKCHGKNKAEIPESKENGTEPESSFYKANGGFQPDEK

CCCC[C@]1(CC)CS(=O)(=O)c2cc(CN[C@@H](CCCCN(C)C)C(=O)O)c(OC)cc2[C@@H](c2ccccc2)N1 [Example 59, N^2-{[(3R,5R)-3-butyl-3-ethyl-7-(methyloxy)-1,1-dioxido-5-phenyl-2,3,4,5-tetrahydro-1,4-benzothiazepin-8-yl]methyl}-N^6,N^6-dimethyl-L-lysine ammonium salt]
IC50: 3330 nM

CCCC[C@]1(CC)CS(=O)(=O)c2cc(CN(O)CC(=O)O)c(OC)cc2[C@@H](c2ccccc2)N1 [Example 48, N-{[(3R,5R)-3-butyl-3-ethyl-7-(methyloxy)-1,1-dioxido-5-phenyl-2,3,4,5-tetrahydro-1,4-benzothiazepin-8-yl]methyl}-N-hydroxyglycine]
IC50: 17 nM

CCCC[C@]1(CC)CS(=O)(=O)c2cc(CNC(CC(=O)O)CC(=O)O)c(OC)cc2[C@@H](c2ccccc2)N1O [Example 50, 3-({[(3R,5R)-3-butyl-3-ethyl-4-hydroxy-7-(methyloxy)-1,1-dioxido-5-phenyl-2,3,4,5-tetrahydro-1,4-benzothiazepin-8-yl]methyl}amino)pentanedioic acid trifluoroacetate salt]
IC50: 51 nM

CCCC[C@]1(CC)CS(=O)(=O)c2cc(CNC(=O)CNCCP(=O)(O)O)c(OC)cc2[C@@H](c2ccccc2)N1 [Example 40, (2-{[2-({[(3R,5R)-3-butyl-3-ethyl-7-(methyloxy)-1,1-dioxido-5-phenyl-2,3,4,5-tetrahydro-1,4-benzothiazepin-8-yl]methyl}amino)-2-oxoethyl]amino}ethyl)phosphonic acid trifluoroacetate salt]
IC50: 4670 nM

CCCC[C@]1(CC)CS(=O)(=O)c2cc(CN[C@@H](CSSC[C@H](N)C(=O)O)C(=O)O)c(OC)cc2[C@@H](c2ccccc2)N1 [Example 53, N-{[(3R,5R)-3-butyl-3-ethyl-7-(methyloxy)-1,1-dioxido-5-phenyl-2,3,4,5-tetrahydro-1,4-benzothiazepin-8-yl]methyl}-L-cystine bis-ammonium salt]
IC50: 67 nM

CCCC[C@]1(CC)CS(=O)(=O)c2cc(CNCC(=O)O)c(N(C)C)cc2[C@@H](c2ccccc2)N1 [Example 68, N-{[(3R,5R)-3-butyl-7-(dimethylamino)-3-ethyl-1,1-dioxido-5-phenyl-2,3,4,5-tetrahydro-1,4-benzothiazepin-8-yl]methyl}glycine trifluoroacetate salt]
IC50: 1 nM

CCCC[C@]1(CC)CS(=O)(=O)c2cc(CS(=O)(=O)O)c(OC)cc2[C@@H](c2ccccc2)N1 [Example 5, [3R,5R)-3-butyl-3-ethyl-7-(methyloxy)-1,1-dioxido-5-phenyl-2,3,4,5-tetrahydro-1,4-benzothiazepin-8-yl]methanesulfonic acid trifluoroacetate salt]
IC50: 4 nM

CCCC[C@]1(CC)CS(=O)(=O)c2cc(CCC(=O)NCS(=O)(=O)O)c(OC)cc2[C@@H](c2ccccc2)N1 [Example 13, ({3-[(3R,5R)-3-butyl-3-ethyl-7-(methyloxy)-1,1-dioxido-5-phenyl-2,3,4,5-tetrahydro-1,4-benzothiazepin-8-yl]propanoyl}amino)methanesulfonic acid]
IC50: 167 nM

CCCC[C@]1(CC)CS(=O)(=O)c2cc(CN[C@H](CC(=O)O)C(=O)O)c(OC)cc2[C@@H](c2ccccc2)N1 [Example 28, N-{[(3R,5R)-3-butyl-3-ethyl-7-(methyloxy)-1,1-dioxido-5-phenyl-2,3,4,5-tetrahydro-1,4-benzothiazepin-8-yl]methyl}-D-aspartic acid trifluoroacetate salt]
IC50: 55 nM

CCCC[C@]1(CC)CS(=O)(=O)c2cc(CCC(=O)NO)c(OC)cc2[C@@H](c2ccccc2)N1 [Example 12, 3-[(3R,5R)-3-butyl-3-ethyl-7-(methyloxy)-1,1-dioxido-5-phenyl-2,3,4,5-tetrahydro-1,4-benzothiazepin-8-yl]-N-hydroxypropanamide]
IC50: 68 nM

CCCC[C@]1(CC)CS(=O)(=O)c2cc(/C=C/C(=O)O)c(OC)cc2[C@@H](c2ccccc2)N1 [Example 9, (2E)-3-[(3R,5R)-3-butyl-3-ethyl-7-(methyloxy)-1,1-dioxido-5-phenyl-2,3,4,5-tetrahydro-1,4-benzothiazepin-8-yl]-2-propenoic acid ammonium salt]
IC50: 3 nM

CCCC[C@]1(CC)CS(=O)(=O)c2cc(CN[C@@H](CC(=O)O)C(=O)O)c(OC)cc2[C@@H](c2ccccc2)N1 [Example 27, N-{[(3R,5R)-3-butyl-3-ethyl-7-(methyloxy)-1,1-dioxido-5-phenyl-2,3,4,5-tetrahydro-1,4-benzothiazepin-8-yl]methyl}-L-aspartic acid trifluoroacetate salt]
IC50: 47 nM

CCCC[C@]1(CC)CS(=O)(=O)c2cc(C(=O)NCCS(=O)(=O)O)c(OC)cc2[C@@H](c2ccccc2)N1 [Example 3, 2-({[(3R,5R)-3-butyl-3-ethyl-7-(methyloxy)-1,1-dioxido-5-phenyl-2,3,4,5-tetrahydro-1,4-benzothiazepin-8-yl]carbonyl}amino)ethanesulfonic acid trifluoroacetate]
IC50: 2 nM

CCCC[C@]1(CC)CS(=O)(=O)c2cc(CNCC(=O)O)c(OC)cc2[C@H](c2ccccc2)N1 [Example 44, N-{[(3R,5S)-3-butyl-3-ethyl-7-(methyloxy)-1,1-dioxido-5-phenyl-2,3,4,5-tetrahydro-1,4-benzothiazepin-8-yl]methyl}glycine trifluoroacetate salt]
IC50: 648 nM

CCCC[C@]1(CC)CS(=O)(=O)c2cc(CN(CP(=O)(O)O)CP(=O)(O)OCC)c(OC)cc2[C@@H](c2ccccc2)N1 [Example 61, [({[(3R,5R)-3-butyl-3-ethyl-7-(methyloxy)-1,1-dioxido-5-phenyl-2,3,4,5-tetrahydro-1,4-benzothiazepin-8-yl]methyl}{[(ethyloxy)(hydroxy)phosphoryl]methyl}amino)methyl]phosphonic acid triammonium salt]
IC50: 3360 nM

CCCC[C@]1(CC)CS(=O)(=O)c2cc(CNCCP(=O)(O)OCC)c(OC)cc2[C@@H](c2ccccc2)N1 [Example 34, ethyl hydrogen [2-({[(3R,5R)-3-butyl-3-ethyl-7-(methyloxy)-1,1-dioxido-5-phenyl-2,3,4,5-tetrahydro-1,4-benzothiazepin-8-yl]methyl}amino)ethyl]phosphonate trifluoroacetate salt]
IC50: 2790 nM

CCCC[C@]1(CC)CS(=O)(=O)c2cc(CNC(CC(=O)O)CC(=O)O)c(OC)cc2[C@H](c2ccccc2)N1 [Example 43, 3-({[(3R,5S)-3-butyl-3-ethyl-7-(methyloxy)-1,1-dioxido-5-phenyl-2,3,4,5-tetrahydro-1,4-benzothiazepin-8-yl]methyl}amino)pentanedioic acid]
IC50: 7680 nM

CCCC[C@]1(CC)CS(=O)(=O)c2cc(CNC(=O)CP(=O)(O)O)c(OC)cc2[C@@H](c2ccccc2)N1 [Example 38, [2-({[(3R,5R)-3-butyl-3-ethyl-7-(methyloxy)-1,1-dioxido-5-phenyl-2,3,4,5-tetrahydro-1,4-benzothiazepin-8-yl]methyl}amino)-2-oxoethyl]phosphonic acid trifluoroacetate salt]
IC50: 249 nM

CCCC[C@]1(CC)CS(=O)(=O)c2cc(CCCO)c(OC)cc2[C@@H](c2ccccc2)N1 [Example 19, 3-[(3R,5R)-3-butyl-3-ethyl-7-(methyloxy)-1,1-dioxido-5-phenyl-2,3,4,5-tetrahydro-1,4-benzothiazepin-8-yl]-1-propanol]
IC50: 622 nM
